Values quoted from earlier work as cited in patent US20240366601A1, “METHODS FOR TREATING TRAUMATIC BRAIN INJURY” (The Regents of the University of California, priority 2021, published 2024).

Key:
[1] = molecular target: CDK4 (Homo sapiens, UniProt P11802); conditions: for CDK4; read-out: in vitro IC50 (nM) in cell-free assays
[2] = FDA-approved doses for cancer treatments; list continues over the following table lines

CDK4, sequence (P11802 whole entry): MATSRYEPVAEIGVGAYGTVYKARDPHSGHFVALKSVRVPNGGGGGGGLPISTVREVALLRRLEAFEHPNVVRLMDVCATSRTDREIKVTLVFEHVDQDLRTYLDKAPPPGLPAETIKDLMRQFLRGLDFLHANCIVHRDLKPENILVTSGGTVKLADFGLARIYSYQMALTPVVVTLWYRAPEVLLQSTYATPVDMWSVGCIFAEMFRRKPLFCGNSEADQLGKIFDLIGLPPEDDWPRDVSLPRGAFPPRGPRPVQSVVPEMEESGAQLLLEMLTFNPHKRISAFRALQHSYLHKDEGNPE
CDK4, sequence (P24385 whole entry partner): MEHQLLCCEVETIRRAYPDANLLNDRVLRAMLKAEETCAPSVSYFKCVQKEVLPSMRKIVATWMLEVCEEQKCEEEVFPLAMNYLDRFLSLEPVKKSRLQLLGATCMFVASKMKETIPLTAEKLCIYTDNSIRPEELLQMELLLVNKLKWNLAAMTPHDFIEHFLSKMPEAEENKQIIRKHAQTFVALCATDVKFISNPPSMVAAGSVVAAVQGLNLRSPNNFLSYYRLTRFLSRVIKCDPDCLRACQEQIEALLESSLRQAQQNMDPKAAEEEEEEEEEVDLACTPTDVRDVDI

Structure (SMILES)	IC50 [1] [nM]	Common Side effects at FDA-approved doses (Medline Plus) [2]
CN1CCN(c2ccc(Nc3ncc4cc(C#N)c(=O)n(C5CCCC5)c4n3)cc2)CC1 [ON123300]	3.9	
CCN1CCN(Cc2ccc(Nc3ncc(F)c(-c4cc(F)c5nc(C)n(C(C)C)c5c4)n3)nc2)CC1 [abemaciclib]		diarrhea, nausea, abdominal pain, infections, tiredness, anemia, leukopenia,
CN(C)C(=O)c1cc2cnc(Nc3ccc(N4CCNCC4)cn3)nc2n1C1CCCC1 [ribociclib]		diarrhea; constipation; stomach pain; headache; hair loss; back pain; itching;
